Read-outs that look alike come from different tables or passages of the source.
Assays:
[1] = Cytotoxicity (CC50) in Vero cells; conditions: African green monkey
DENV = assay: Reduction in viral infection, dengue virus in Vero cells, immunofluorescence (4G2 antibody); assay type: cell-based, Dengue virus New Guinea C (NGC); conditions: 72 h, read-out: EC50 DENV
ZIKV = assay: Reduction in viral infection, zika virus in Vero cells, immunofluorescence (4G2 antibody); assay type: cell-based, Zikavirus (MR766); conditions: 72 h, day 3 after infection
in vitro [2] = conditions: dog
CHIKV = assay: Cytopathic effect reduction, Chikungunya virus in Vero cells, MTT; assay type: cell-based; conditions: 72 h, read-out: EC50 CHIKV
Influenza virus B/Lee/40 = assay: Cytopathic effect reduction, influenza B Lee in MDCK cells, MTT; assay type: cell-based; conditions: for Selectivity index FluB Lee: CC50/EC50; for EC50: MDCK, 72 h, read-out: Anti-Flu activity EC50 FluB Lee
in vitro [3] = conditions: human
MERS-CoV = assay: microbe, parasite or virus in culture; assay type: cell-based, MERS virus (MERS-CoV/KOR/KNIH/002_05_2015); conditions: Middle East respiratory syndrome-related coronavirus, Huh-7, 72 h, read-out: EC50 MERS-CoV
hCoV (229E) = assay: microbe, parasite or virus in culture; assay type: cell-based, Human coronavirus hCoV 229E; conditions: MRC5, 72 h, read-out: EC50 hCoV (229E)
FIPV = assay: Cytopathic effect reduction, FIPV in CRFK cells, MTT; assay type: cell-based, feline infectious peritonitis virus (FIPV); conditions: read-out: EC50 FIPV
in vitro [4] = conditions: cat
hCoV (OC43) = assay: Cytopathic effect reduction, hCoV OC43 in MRC-5 cells, MTT; assay type: cell-based, Human coronavirus hCoV OC43; conditions: Betacoronavirus 1, OC43, MRC5, 72 h, read-out: EC50 hCoV (OC43)
in vitro [5] = conditions: human; remark: listed apart in the source
[6] = CC50 (CHIKV), Vero cells, CHIKV test, MTT
[7] = CC50 (DENV), Vero cells, DENV test
[8] = MRC-5 cells, day 3 after infection
[9] = Alphacoronavirus 1, 72 h, CRFK cells, day 3 after infection
[10] = read-out: CC50 (hCoV OC43), MRC-5 cells, day 3

| SMILES | CC50 at 3 days [1, 6] [µM] | CC50 at 3 days [1, 7] [µM] | CC50 at 3 days ([1]; CC50, Vero cells, ZIKV test) [µM] | EC50 (DENV) [µM] | EC50 (ZIKV) [µM] | CC50 at 3 days (in vitro [2]) [µM] | EC50 (CHIKV) [µM] | Selectivity index FluB Lee (Influenza virus B/Lee/40) | EC50 (Influenza virus B/Lee/40) [µM] | CC50 at 3 days (in vitro [3]) [µM] | EC50 (MERS-CoV) [µM] | EC50 (hCoV (229E)) [µM] | EC50 (FIPV; Alphacoronavirus 1, CRFK, 72 h) [µM] | CC50 (in vitro [4]) [µM] | CC50 (MRC-5 cells; human) [µM] | EC50 (hCoV (OC43)) [µM] | CC50 (in vitro [5]) [µM] | also measured |
| --- | --- | --- | --- | --- | --- | --- | --- | --- | --- | --- | --- | --- | --- | --- | --- | --- | --- | --- |
| O=C(Nc1ccn(C2O[C@H](CO)[C@@H](O)[C@H]2F)c(=O)n1)c1cccc(-c2ccccc2)n1 (stereo in doubt) [Example 27, N-(1-((2S,3R,4R,5R)-3-fluoro-4-hydroxy-5-(hydroxymethyl)tetrahydrofuran-2-yl)-2-oxo-1,2-dihydropyrimidin-4-yl)-6-phenylpicolinamide] | > 100 | 64.4 | > 100 | 13.7 | > 100 | > 100 | > 100 | >6.4 | 15.6 | 56.6 | 20.9 | – | – | – | – | – | – | – |
| Cc1nccc(C(=O)Nc2ccn(C3O[C@H](CO)[C@@H](O)[C@H]3F)c(=O)n2)n1 (stereo in doubt) [Example 29, N-(1-((2S,3R,4R,5R)-3-fluoro-4-hydroxy-5-(hydroxymethyl)tetrahydrofuran-2-yl)-2-oxo-1,2-dihydropyrimidin-4-yl)-2-methylpyrimidin-4-carboxamide] | > 100 | > 100 | > 100 | > 100 | > 100 | > 100 | 24 | >17.9 | 5.6 | > 100 | > 100 | – | – | – | – | – | – | – |
| O=C(Nc1ccn(C2O[C@H](CO)[C@@H](O)[C@H]2F)c(=O)n1)c1ccc([N+](=O)[O-])cn1 (stereo in doubt) [Example 30, N-(1-((2S,3R,4R,5R)-3-fluoro-4-hydroxy-5-(hydroxymethyl)tetrahydrofuran-2-yl)-2-oxo-1,2-dihydropyrimidin-4-yl)-5-nitropicolinamide] | > 100 | > 100 | > 100 | 77.9 | > 100 | > 100 | 62.5 | >15.4 | 6.5 | > 100 | > 100 | – | – | – | – | – | – | – |
| Nc1ccc(C(=O)Nc2ccn(C3O[C@H](CO)[C@@H](O)[C@H]3F)c(=O)n2)nc1 (stereo in doubt) [Example 31, 5-Amino-N-(1-((2S,3R,4R,5R)-3-fluoro-4-hydroxy-5-(hydroxymethyl)tetrahydrofuran-2-yl)-2-oxo-1,2-dihydropyrimidin-4-yl)picolinamide] | – | > 100 | > 100 | > 100 | 57.6 | – | – | – | – | > 100 | > 100 | – | – | – | – | – | – | – |
| O=C(Nc1ccn(C2O[C@H](CO)[C@@H](O)[C@H]2F)c(=O)n1)c1cccnn1 (stereo in doubt) [Example 33, N-(1-((2S,3R,4R,5R)-3-fluoro-4-hydroxy-5-(hydroxymethyl)tetrahydrofuran-2-yl)-2-oxo-1,2-dihydropyrimidin-4-yl)pyridazine-3-carboxamide] | > 100 | > 100 | > 100 | > 100 | > 100 | > 100 | 86.4 | >12.8 | 7.8 | > 100 | > 100 | – | – | – | – | – | – | – |
| O=C(Nc1ccn(C2O[C@H](CO)[C@@H](O)[C@H]2F)c(=O)n1)c1ccncn1 (stereo in doubt) [Example 36, N-(1-((2S,3R,4R,5R)-3-fluoro-4-hydroxy-5-(hydroxymethyl)tetrahydrofuran-2-yl)-2-oxo-1,2-dihydropyrimidin-4-yl)pyrimidine-4-carboxamide] | > 100 | > 100 | > 100 | > 100 | > 100 | > 100 | 57.7 | >8.8 | 11.4 | > 100 | > 100 | – | – | – | – | – | – | – |
| O=C(Nc1ccn([C@@H]2O[C@H](CO)[C@@H](O)C2(F)F)c(=O)n1)c1cccnc1 [Example 1, N-(1-((2R,4R,5R)-3,3-difluoro-4-hydroxy-5-(hydroxymethyl)tetrahydrofuran-2-yl)-2-oxo-1,2-dihydropyrimidin-4-yl)nicotinamide] | – | > 100 | – | 3.42 | – | > 100 | – | >34.9 | 8.6 | > 100 | 10.4 | 4.6 | 25 | 56 | > 100 | 76 | > 100 | – |
| O=C(Nc1ccn([C@@H]2O[C@H](CO)[C@@H](O)C2(F)F)c(=O)n1)c1ccccn1 [Example 2, N-(1-((2R,4R,5R)-3,3-difluoro-4-hydroxy-5-(hydroxymethyl)tetrahydrofuran-2-yl)-2-oxo-1,2-dihydropyrimidin-4-yl)picolinamide] | – | > 100 | – | 0.72 | – | > 100 | – | >136.4 | 2.2 | > 100 | 1.8 | 0.8 | 9.1 | > 100 | > 100 | > 100 | > 100 | – |
| Cc1ccc(C(=O)Nc2ccn([C@@H]3O[C@H](CO)[C@@H](O)C3(F)F)c(=O)n2)cn1 [Example 4, N-(1-((2R,4R,5R)-3,3-difluoro-4-hydroxy-5-(hydroxymethyl)tetrahydrofuran-2-yl)-2-oxo-1,2-dihydropyrimidin-4-yl)-6-methylnicotinamide] | – | > 100 | – | 0.71 | – | > 100 | – | >157.9 | 1.9 | > 100 | 2.2 | 11.1 | 8.1 | > 100 | > 100 | > 100 | > 100 | – |
| O=C(Nc1ccn([C@@H]2O[C@H](CO)[C@@H](O)C2(F)F)c(=O)n1)c1cccnn1 [Example 5, N-(1-((2R,4R,5R)-3,3-difluoro-4-hydroxy-5-(hydroxymethyl)tetrahydrofuran-2-yl)-2-oxo-1,2-dihydropyrimidin-4-yl)pyridazine-3-carboxamide] | – | > 100 | – | 0.94 | – | > 100 | – | >142.9 | 2.1 | > 100 | 1.4 | 8.9 | 8.5 | > 100 | > 100 | 17.2 | > 100 | – |
| O=C1CCCN1c1ccn([C@@H]2O[C@H](CO)[C@@H](O)C2(F)F)c(=O)n1 [Example 7] | – | > 100 | – | 15.7 | – | > 100 | – | >10.6 | 9.4 | – | – | – | – | > 100 | – | – | > 100 | EC50 (hCoV (229E); [8]): 17.6 µM; EC50 (FIPV; [9]): 77 µM; CC50 (MRC-5 cells; [10]): > 100 µM; EC50 (hCoV (OC43); [8]): > 100 µM |
| O=C(Nc1ccn([C@@H]2O[C@H](CO)[C@@H](O)C2(F)F)c(=O)n1)c1ccc(F)cn1 [Example 9, N-(1-((2R,4R,5R)-3,3-difluoro-4-hydroxy-5-(hydroxymethyl)tetrahydrofuran-2-yl)-2-oxo-1,2-dihydropyrimidin-4-yl)-5-fluoropicolinamide] | – | > 100 | – | 1.34 | – | > 100 | – | >16.4 | 6.1 | – | – | – | – | > 100 | – | – | > 100 | EC50 (hCoV (229E); [8]): 2.4 µM; EC50 (FIPV; [9]): 18 µM; CC50 (MRC-5 cells; [10]): > 100 µM; EC50 (hCoV (OC43); [8]): > 100 µM |
| Cc1ccc(C(=O)Nc2ccn([C@@H]3O[C@H](CO)[C@@H](O)C3(F)F)c(=O)n2)nc1 [Example 10, N-(1-((2R,4R,5R)-3,3-difluoro-4-hydroxy-5-(hydroxymethyl)tetrahydrofuran-2-yl)-2-oxo-1,2-dihydropyrimidin-4-yl)-5-methylpicolinamide] | – | > 100 | – | 2.53 | – | > 100 | – | >10.2 | 9.8 | – | – | – | – | 92 | – | – | > 100 | EC50 (hCoV (229E); [8]): 7.4 µM; EC50 (FIPV; [9]): 21 µM; CC50 (MRC-5 cells; [10]): > 100 µM; EC50 (hCoV (OC43); [8]): > 100 µM |

— patent US11655268B2, “Nucleoside or nucleotide derivatives, and uses thereof” (ST Pharm Co., Ltd., priority 2018, dated 2023)
